Assay results published in patent US8835472B2, “Compounds, pharmaceutical compositions and uses thereof” (Boehringer Ingelheim International GmbH, priority 2010, dated 2014).

target: human ACC2 (Homo sapiens (Human), UniProt O00763); assay: ACC2 assay, spectrophotometric 384 well assay (NADH-linked, coupled lactate dehydrogenase/pyruvate kinase reaction); type: biochemical; details: hACC2 construct lacking the 128 N-terminal amino acids; 25° C., 340 nm over 15 minutes
In short: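 N-terminally truncated human ACC2 (lacking 128 residues) expressed in insect cells; coupled PK/LDH read-out of ADP as NADH loss at 340 nm, 15 min, 25 °C. Tris pH 7.5 with citrate and KHCO3; 200 μM acetyl-CoA, 500 μM ATP, 1% DMSO.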

human ACC2, sequence (O00763 129-2458): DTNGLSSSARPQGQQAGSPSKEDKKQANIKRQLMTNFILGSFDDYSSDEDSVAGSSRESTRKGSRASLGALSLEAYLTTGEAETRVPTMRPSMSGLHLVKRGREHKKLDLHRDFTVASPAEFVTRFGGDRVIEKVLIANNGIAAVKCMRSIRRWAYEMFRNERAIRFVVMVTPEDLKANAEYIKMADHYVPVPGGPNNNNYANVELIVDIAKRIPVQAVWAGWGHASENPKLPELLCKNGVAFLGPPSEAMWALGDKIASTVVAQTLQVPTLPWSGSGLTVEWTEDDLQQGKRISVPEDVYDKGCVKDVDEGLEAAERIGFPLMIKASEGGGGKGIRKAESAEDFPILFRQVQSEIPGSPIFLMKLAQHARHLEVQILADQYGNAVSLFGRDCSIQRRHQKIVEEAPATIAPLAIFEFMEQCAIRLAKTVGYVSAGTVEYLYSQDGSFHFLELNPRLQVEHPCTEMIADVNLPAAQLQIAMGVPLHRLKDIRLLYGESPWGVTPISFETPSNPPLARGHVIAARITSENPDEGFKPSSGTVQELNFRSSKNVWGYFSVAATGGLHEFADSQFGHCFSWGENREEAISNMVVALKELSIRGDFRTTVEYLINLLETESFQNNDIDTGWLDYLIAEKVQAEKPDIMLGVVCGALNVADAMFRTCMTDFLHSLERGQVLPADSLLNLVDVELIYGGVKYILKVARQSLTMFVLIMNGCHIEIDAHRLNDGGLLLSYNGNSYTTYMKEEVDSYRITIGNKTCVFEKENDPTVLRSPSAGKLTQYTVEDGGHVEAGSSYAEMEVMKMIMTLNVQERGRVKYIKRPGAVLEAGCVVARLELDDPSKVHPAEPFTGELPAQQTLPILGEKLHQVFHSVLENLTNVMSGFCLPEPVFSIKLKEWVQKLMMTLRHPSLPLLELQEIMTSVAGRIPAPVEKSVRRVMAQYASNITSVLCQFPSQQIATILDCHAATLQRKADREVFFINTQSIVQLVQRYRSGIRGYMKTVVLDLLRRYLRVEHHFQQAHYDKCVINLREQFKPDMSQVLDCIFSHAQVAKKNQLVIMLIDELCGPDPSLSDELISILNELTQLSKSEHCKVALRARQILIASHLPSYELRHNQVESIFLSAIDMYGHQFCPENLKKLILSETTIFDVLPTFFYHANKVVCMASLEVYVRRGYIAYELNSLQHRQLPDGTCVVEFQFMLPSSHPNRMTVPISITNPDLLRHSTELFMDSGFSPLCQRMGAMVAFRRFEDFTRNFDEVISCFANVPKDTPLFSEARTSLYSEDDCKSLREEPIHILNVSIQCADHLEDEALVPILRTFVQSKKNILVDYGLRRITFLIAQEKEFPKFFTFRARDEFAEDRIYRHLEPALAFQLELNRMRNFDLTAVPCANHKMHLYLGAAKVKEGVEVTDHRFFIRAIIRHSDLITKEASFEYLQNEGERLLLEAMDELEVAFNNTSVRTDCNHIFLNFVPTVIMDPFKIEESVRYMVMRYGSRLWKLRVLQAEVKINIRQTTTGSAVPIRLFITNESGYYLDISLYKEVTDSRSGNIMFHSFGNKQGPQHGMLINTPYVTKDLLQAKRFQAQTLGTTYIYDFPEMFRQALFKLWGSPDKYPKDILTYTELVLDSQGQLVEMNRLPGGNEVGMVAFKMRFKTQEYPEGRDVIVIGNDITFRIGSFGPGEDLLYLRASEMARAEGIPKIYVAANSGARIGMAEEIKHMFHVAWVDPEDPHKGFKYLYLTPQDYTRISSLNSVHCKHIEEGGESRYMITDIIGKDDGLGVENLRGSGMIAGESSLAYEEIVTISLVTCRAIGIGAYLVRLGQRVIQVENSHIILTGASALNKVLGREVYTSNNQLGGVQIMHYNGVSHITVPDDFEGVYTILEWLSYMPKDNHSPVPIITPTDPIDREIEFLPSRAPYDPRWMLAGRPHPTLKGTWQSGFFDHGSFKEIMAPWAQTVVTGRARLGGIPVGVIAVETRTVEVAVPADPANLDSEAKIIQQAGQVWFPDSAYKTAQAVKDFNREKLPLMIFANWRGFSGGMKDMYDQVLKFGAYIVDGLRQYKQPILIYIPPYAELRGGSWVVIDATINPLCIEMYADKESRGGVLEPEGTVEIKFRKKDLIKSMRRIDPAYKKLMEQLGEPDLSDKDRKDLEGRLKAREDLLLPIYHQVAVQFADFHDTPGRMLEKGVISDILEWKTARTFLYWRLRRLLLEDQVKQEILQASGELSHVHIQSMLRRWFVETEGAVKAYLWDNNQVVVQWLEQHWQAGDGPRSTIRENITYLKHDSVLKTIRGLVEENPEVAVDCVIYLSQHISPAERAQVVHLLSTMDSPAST

Structure (SMILES)	IC50 [nM]
CC(=O)NC(C)Cc1ccc(C#Cc2cnc(OCc3ccccc3)nc2)cc1 (stereo not shown) [Example 12.20]	530
CC(=O)NC(C)Cc1ccc(C#Cc2cnc(OC(C)C)nc2)cc1 (stereo not shown) [Example 12.21]	380
CC(Cc1ccc(C#Cc2cnc(OC3CCC3)nc2)cc1)NC(=O)C1CC1 (stereo not shown) [Example 12.22]	640
CCCOc1ncc(C#Cc2ccc(CC(C)NC(=O)C3CC3)cc2)cn1 (stereo not shown) [Example 12.23]	1100
CC(Cc1ccc(C#Cc2cnc(Oc3ccccc3)nc2)cc1)NC(=O)C1CC1 (stereo not shown) [Example 12.24]	590
CC(Cc1ccc(C#Cc2cnc(OC(C)C)nc2)cc1)NC(=O)C1CC1 (stereo not shown) [Example 12.25]	2400
CCCOc1ncc(C#Cc2ccc(CC(C)NC(=O)OC)cc2)cn1 (stereo not shown) [Example 12.26]	1000
COC(=O)NC(C)Cc1ccc(C#Cc2cnc(Oc3ccccc3)nc2)cc1 (stereo not shown) [Example 12.27]	860
COC(=O)NC(C)Cc1ccc(C#Cc2cnc(OC(C)C)nc2)cc1 (stereo not shown) [Example 12.28]	1100
CC(Cc1ccc(C#Cc2cnc(OC3CCC3)nc2)cc1)NC(=O)N(C)C (stereo not shown) [Example 12.29]	70
CCCOc1ncc(C#Cc2ccc(CC(C)NC(=O)N(C)C)cc2)cn1 (stereo not shown) [Example 12.30]	190
CC(=O)NC(C)Cc1ccc(C#Cc2cnc(OCCF)nc2)cc1 (stereo not shown) [Example 12.31]	1100
CC(=O)NC(C)Cc1ccc(C#Cc2cnc(OCCc3ccccc3)nc2)cc1 (stereo not shown) [Example 12.32]	320
CC(=O)NC(C)Cc1ccc(C#Cc2cnc(OCCC3CC3)nc2)cc1 (stereo not shown) [Example 12.33]	320
CCCCOc1ncc(C#Cc2ccc(CC(C)NC(C)=O)cc2)cn1 (stereo not shown) [Example 12.34]	280
CC(=O)NC(C)Cc1ccc(C#Cc2cnc(OC(C)c3ccncc3)nc2)cc1 (stereo not shown) [Example 12.35]	2300
CC(=O)NC(C)Cc1ccc(C#Cc2cnc(OCc3cncs3)nc2)cc1 (stereo not shown) [Example 12.36]	1500
CCC(COC)Oc1ncc(C#Cc2ccc(CC(C)NC(C)=O)cc2)cn1 (stereo not shown) [Example 12.37]	1100
CC(=O)NC(C)Cc1ccc(C#Cc2cnc(OC(C)C(F)(F)F)nc2)cc1 (stereo not shown) [Example 12.38]	260
CC(=O)NC(C)Cc1ccc(C#Cc2cnc(Oc3ccc4cn[nH]c4c3)nc2)cc1 (stereo not shown) [Example 12.39]	3200
COc1ccc(Oc2ncc(C#Cc3ccc(CC(C)NC(C)=O)cc3)cn2)cn1 (stereo not shown) [Example 12.40]	630
CC(=O)NC(C)Cc1ccc(C#Cc2cnc(OC(C)CF)nc2)cc1 (stereo not shown) [Example 12.41]	520
CC(=O)NC(C)Cc1ccc(C#Cc2cnc(OC(C)CC(F)(F)F)nc2)cc1 (stereo not shown) [Example 12.42]	350
CC(=O)NC(C)Cc1ccc(C#Cc2cnc(OCC(C)(F)F)nc2)cc1 (stereo not shown) [Example 12.43]	2600
CC(=O)NC(C)Cc1ccc(C#Cc2cnc(OC(CF)CF)nc2)cc1 (stereo not shown) [Example 12.44]	1000
CC(=O)NC(C)Cc1ccc(C#Cc2cnc(OCC3CC3(F)F)nc2)cc1 (stereo not shown) [Example 12.45]	180

Structure (SMILES)	IC50 [nM]
COc1ccccc1Oc1ncc(C#Cc2ccc(CC(C)NC(C)=O)cc2)cn1 (stereo not shown) [Example 12.46]	1000
CC(=O)NC(C)Cc1ccc(C#Cc2cnc(Oc3cccc(F)c3)nc2)cc1 (stereo not shown) [Example 12.47]	130
CC(=O)NC(C)Cc1ccc(C#Cc2cnc(Oc3ccc(F)cc3)nc2)cc1 (stereo not shown) [Example 12.49]	230
COc1ccc(Oc2ncc(C#Cc3ccc(CC(C)NC(C)=O)cc3)cn2)cc1 (stereo not shown) [Example 12.50]	530
CC(=O)NC(C)Cc1ccc(C#Cc2cnc(Oc3cccnc3)nc2)cc1 (stereo not shown) [Example 12.51]	1500
CC(=O)NC(C)Cc1ccc(C#Cc2cnc(OC3Cc4ccccc4C3)nc2)cc1 (stereo not shown) [Example 12.52]	430
CC(=O)NC(C)Cc1ccc(C#Cc2cnc(OCc3ccccc3F)nc2)cc1 (stereo not shown) [Example 12.53]	9000
CC(=O)NC(C)Cc1ccc(C#Cc2cnc(OCc3cccc(F)c3)nc2)cc1 (stereo not shown) [Example 12.54]	230
CC(=O)NC(C)Cc1ccc(C#Cc2cnc(OCc3ccc(F)cc3)nc2)cc1 (stereo not shown) [Example 12.55]	170
CC(=O)NC(C)Cc1ccc(C#Cc2cnc(OCc3cccnc3)nc2)cc1 (stereo not shown) [Example 12.56]	4900
CC(=O)NC(C)Cc1ccc(C#Cc2cnc(OCc3ccccn3)nc2)cc1 (stereo not shown) [Example 12.57]	1800
C[C@H](NC(=O)C1CC1)c1ccc(C#Cc2cnc(OCC3CC3)nc2)cc1 [Example 12.58]	4500
CC(=O)N[C@@H](C)c1ccc(C#Cc2cnc(OCC3CC3)nc2)cc1 [Example 12.59]	1600
CC(=O)N[C@@H](C)c1ccc(C#Cc2cnc(OCc3ccccc3)nc2)cc1 [Example 12.60]	540
CC(=O)N[C@@H](C)c1ccc(C#Cc2cnc(OCc3ccoc3)nc2)cc1 [Example 12.61]	790
CC(=O)N[C@@H](C)c1ccc(C#Cc2cnc(OC3CCC3)nc2)cc1 [Example 12.62]	240
C[C@H](NC(=O)C1CC1)c1ccc(C#Cc2cnc(OCCC(F)(F)F)nc2)cc1 [Example 12.63]	1100
CC(=O)N[C@@H](C)c1ccc(C#Cc2cnc(OCCC(F)(F)F)nc2)cc1 [Example 12.64]	550
C[C@H](NC(=O)C1CC1)c1ccc(C#Cc2cnc(OC3CCC3)nc2)cc1 [Example 12.65]	450
CCOc1ncc(C#Cc2ccc([C@H](C)NC(=O)C3CC3)cc2)cn1 [Example 12.66]	2100
C[C@H](NC(=O)C1CC1)c1ccc(C#Cc2cnc(Oc3ccccc3)nc2)cc1 [Example 12.67]	3900
CC(=O)N[C@@H](C)c1ccc(C#Cc2cnc(Oc3ccccc3)nc2)cc1 [Example 12.68]	980
CCOc1ncc(C#Cc2ccc([C@H](C)NC(C)=O)cc2)cn1 [Example 12.69]	2600
COCCN(C)c1ncc(C#Cc2ccc(CC(C)NC(C)=O)cc2)cn1 (stereo not shown) [Example 13.1, N-(1-(4-((2-((2-Methoxyethyl)(methyl)amino)pyrimidin-5-yl)ethynyl)phenyl)propan-2-yl)acetamide]	3200
CCCNc1ncc(C#Cc2ccc(CC(C)NC(C)=O)cc2)cn1 (stereo not shown) [Example 13.2]	210
CCN(C)c1ncc(C#Cc2ccc(CC(C)NC(C)=O)cc2)cn1 (stereo not shown) [Example 13.3]	1000

Structure (SMILES)	IC50 [nM]
CC(=O)NC(C)Cc1ccc(C#Cc2cnc(NC(C)C)nc2)cc1 (stereo not shown) [Example 13.4]	170
COC(=O)CNc1ncc(C#Cc2ccc(CC(C)NC(C)=O)cc2)cn1 (stereo not shown) [Example 13.5]	1400
CC(=O)NC(C)Cc1ccc(C#Cc2cnc(NCc3ccccc3)nc2)cc1 (stereo not shown) [Example 13.6]	100
CC(=O)NC(C)Cc1ccc(C#Cc2cnc(N3CCCCC3)nc2)cc1 (stereo not shown) [Example 13.7]	260
CC(=O)NC(C)Cc1ccc(C#Cc2cnc(NC3CCCC3)nc2)cc1 (stereo not shown) [Example 13.8]	220
CC(=O)NC(C)Cc1ccc(C#Cc2cnc(NCC3CC3)nc2)cc1 (stereo not shown) [Example 13.10]	450
CC(=O)NC(C)Cc1ccc(C#Cc2cnc(NC(C)C(C)C)nc2)cc1 (stereo not shown) [Example 13.11]	230
CC(=O)NC(C)Cc1ccc(C#Cc2cnc(NC3CCC3)nc2)cc1 (stereo not shown) [Example 13.12]	110
CCNc1ncc(C#Cc2ccc(CC(C)NC(C)=O)cc2)cn1 (stereo not shown) [Example 13.13]	230
COCC(C)Nc1ncc(C#Cc2ccc(CC(C)NC(C)=O)cc2)cn1 (stereo not shown) [Example 13.14]	1900
CCCC(C)Nc1ncc(C#Cc2ccc(CC(C)NC(C)=O)cc2)cn1 (stereo not shown) [Example 13.15]	160
CC(=O)NC(C)Cc1ccc(C#Cc2cnc(N(C)C3CCCC3)nc2)cc1 (stereo not shown) [Example 13.16]	190
CC(=O)NC(C)Cc1ccc(C#Cc2cnc(NCC3CCC3)nc2)cc1 (stereo not shown) [Example 13.17]	180
CC(=O)NC(C)Cc1ccc(C#Cc2cnc(N3CC4CCCC4C3)nc2)cc1 (stereo not shown) [Example 13.18]	130
CC(=O)NC(C)Cc1ccc(C#Cc2cnc(NC3CCOC3)nc2)cc1 (stereo not shown) [Example 13.19]	670
CC(=O)NC(C)Cc1ccc(C#Cc2cnc(NCC(C)C)nc2)cc1 (stereo not shown) [Example 13.20]	260
CCC(C)N(C)c1ncc(C#Cc2ccc(CC(C)NC(C)=O)cc2)cn1 (stereo not shown) [Example 13.21]	210
CC(=O)NC(C)Cc1ccc(C#Cc2cnc(N3CCOCC3)nc2)cc1 (stereo not shown) [Example 13.22]	730
CCN(CC)c1ncc(C#Cc2ccc(CC(C)NC(C)=O)cc2)cn1 (stereo not shown) [Example 13.23]	1200
CC(C)Nc1ncc(C#Cc2ccc(CC(C)NC(=O)N(C)C)cc2)cn1 (stereo not shown) [Example 13.24]	200
CCC(C)Nc1ncc(C#Cc2ccc(CC(C)NC(=O)N(C)C)cc2)cn1 (stereo not shown) [Example 13.25]	220
CCNc1ncc(C#Cc2ccc(CC(C)NC(=O)N(C)C)cc2)cn1 (stereo not shown) [Example 13.26]	200
CC(Cc1ccc(C#Cc2cnc(NC3CCC3)nc2)cc1)NC(=O)N(C)C (stereo not shown) [Example 13.27]	120
COC(=O)NC(C)Cc1ccc(C#Cc2cnc(NCc3ccncc3)nc2)cc1 (stereo not shown) [Example 13.28]	3400
